Experiments:
[1] = target: T1, Protein deacetylase HDAC6 (Homo sapiens, UniProt Q9UBN7); experiment: biochemical
T1 sequence (Q9UBN7 whole entry): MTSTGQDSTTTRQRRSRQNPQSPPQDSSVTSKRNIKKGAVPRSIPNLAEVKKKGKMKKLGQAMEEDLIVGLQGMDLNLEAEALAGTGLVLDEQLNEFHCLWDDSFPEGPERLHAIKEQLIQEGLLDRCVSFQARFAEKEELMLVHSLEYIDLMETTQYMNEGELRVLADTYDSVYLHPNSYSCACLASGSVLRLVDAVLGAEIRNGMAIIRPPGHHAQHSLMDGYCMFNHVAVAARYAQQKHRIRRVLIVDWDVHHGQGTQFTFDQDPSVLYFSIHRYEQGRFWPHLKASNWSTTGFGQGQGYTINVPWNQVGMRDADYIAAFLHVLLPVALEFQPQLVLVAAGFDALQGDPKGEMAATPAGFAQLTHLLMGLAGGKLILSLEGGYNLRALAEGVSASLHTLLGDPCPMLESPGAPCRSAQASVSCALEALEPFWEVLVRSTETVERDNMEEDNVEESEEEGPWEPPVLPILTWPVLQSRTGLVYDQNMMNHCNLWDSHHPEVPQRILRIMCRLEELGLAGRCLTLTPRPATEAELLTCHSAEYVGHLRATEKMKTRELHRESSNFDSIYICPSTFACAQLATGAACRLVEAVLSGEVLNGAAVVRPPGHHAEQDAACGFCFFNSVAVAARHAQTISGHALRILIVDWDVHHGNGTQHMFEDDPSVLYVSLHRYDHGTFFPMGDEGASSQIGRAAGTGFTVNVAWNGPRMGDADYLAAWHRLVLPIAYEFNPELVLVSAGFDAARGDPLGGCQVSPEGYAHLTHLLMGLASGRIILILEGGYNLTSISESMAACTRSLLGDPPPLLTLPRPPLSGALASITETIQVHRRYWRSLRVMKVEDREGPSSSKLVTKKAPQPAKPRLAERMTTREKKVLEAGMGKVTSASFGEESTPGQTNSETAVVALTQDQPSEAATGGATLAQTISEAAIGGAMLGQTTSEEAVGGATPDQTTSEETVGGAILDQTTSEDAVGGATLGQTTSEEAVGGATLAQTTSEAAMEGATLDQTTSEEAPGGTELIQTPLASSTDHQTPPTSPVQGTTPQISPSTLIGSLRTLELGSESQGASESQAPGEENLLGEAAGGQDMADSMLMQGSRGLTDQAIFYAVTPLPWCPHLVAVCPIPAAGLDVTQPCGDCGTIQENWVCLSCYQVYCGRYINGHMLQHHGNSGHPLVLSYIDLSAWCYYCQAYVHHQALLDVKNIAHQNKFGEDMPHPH

[2] = target: Histone deacetylase 3/Nuclear receptor corepressor 2 (HDAC3/NCoR2) (Homo sapiens, UniProt O15379); experiment: biochemical
Sequence of Histone deacetylase 3/Nuclear receptor corepressor 2 (HDAC3/NCoR2) (O15379 whole entry): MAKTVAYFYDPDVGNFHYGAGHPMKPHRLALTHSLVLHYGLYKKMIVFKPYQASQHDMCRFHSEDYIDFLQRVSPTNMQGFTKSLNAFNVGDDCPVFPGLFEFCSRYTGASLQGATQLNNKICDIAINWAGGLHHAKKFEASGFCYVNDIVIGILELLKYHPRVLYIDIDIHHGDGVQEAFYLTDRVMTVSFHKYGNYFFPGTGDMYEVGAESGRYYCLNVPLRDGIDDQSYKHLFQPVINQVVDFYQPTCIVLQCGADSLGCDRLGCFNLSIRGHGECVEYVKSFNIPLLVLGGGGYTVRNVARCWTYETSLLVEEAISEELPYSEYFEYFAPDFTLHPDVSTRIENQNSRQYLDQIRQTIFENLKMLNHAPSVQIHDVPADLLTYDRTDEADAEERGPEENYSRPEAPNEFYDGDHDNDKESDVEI
Sequence of Histone deacetylase 3/Nuclear receptor corepressor 2 (HDAC3/NCoR2) (Q9Y618 whole entry, further chain): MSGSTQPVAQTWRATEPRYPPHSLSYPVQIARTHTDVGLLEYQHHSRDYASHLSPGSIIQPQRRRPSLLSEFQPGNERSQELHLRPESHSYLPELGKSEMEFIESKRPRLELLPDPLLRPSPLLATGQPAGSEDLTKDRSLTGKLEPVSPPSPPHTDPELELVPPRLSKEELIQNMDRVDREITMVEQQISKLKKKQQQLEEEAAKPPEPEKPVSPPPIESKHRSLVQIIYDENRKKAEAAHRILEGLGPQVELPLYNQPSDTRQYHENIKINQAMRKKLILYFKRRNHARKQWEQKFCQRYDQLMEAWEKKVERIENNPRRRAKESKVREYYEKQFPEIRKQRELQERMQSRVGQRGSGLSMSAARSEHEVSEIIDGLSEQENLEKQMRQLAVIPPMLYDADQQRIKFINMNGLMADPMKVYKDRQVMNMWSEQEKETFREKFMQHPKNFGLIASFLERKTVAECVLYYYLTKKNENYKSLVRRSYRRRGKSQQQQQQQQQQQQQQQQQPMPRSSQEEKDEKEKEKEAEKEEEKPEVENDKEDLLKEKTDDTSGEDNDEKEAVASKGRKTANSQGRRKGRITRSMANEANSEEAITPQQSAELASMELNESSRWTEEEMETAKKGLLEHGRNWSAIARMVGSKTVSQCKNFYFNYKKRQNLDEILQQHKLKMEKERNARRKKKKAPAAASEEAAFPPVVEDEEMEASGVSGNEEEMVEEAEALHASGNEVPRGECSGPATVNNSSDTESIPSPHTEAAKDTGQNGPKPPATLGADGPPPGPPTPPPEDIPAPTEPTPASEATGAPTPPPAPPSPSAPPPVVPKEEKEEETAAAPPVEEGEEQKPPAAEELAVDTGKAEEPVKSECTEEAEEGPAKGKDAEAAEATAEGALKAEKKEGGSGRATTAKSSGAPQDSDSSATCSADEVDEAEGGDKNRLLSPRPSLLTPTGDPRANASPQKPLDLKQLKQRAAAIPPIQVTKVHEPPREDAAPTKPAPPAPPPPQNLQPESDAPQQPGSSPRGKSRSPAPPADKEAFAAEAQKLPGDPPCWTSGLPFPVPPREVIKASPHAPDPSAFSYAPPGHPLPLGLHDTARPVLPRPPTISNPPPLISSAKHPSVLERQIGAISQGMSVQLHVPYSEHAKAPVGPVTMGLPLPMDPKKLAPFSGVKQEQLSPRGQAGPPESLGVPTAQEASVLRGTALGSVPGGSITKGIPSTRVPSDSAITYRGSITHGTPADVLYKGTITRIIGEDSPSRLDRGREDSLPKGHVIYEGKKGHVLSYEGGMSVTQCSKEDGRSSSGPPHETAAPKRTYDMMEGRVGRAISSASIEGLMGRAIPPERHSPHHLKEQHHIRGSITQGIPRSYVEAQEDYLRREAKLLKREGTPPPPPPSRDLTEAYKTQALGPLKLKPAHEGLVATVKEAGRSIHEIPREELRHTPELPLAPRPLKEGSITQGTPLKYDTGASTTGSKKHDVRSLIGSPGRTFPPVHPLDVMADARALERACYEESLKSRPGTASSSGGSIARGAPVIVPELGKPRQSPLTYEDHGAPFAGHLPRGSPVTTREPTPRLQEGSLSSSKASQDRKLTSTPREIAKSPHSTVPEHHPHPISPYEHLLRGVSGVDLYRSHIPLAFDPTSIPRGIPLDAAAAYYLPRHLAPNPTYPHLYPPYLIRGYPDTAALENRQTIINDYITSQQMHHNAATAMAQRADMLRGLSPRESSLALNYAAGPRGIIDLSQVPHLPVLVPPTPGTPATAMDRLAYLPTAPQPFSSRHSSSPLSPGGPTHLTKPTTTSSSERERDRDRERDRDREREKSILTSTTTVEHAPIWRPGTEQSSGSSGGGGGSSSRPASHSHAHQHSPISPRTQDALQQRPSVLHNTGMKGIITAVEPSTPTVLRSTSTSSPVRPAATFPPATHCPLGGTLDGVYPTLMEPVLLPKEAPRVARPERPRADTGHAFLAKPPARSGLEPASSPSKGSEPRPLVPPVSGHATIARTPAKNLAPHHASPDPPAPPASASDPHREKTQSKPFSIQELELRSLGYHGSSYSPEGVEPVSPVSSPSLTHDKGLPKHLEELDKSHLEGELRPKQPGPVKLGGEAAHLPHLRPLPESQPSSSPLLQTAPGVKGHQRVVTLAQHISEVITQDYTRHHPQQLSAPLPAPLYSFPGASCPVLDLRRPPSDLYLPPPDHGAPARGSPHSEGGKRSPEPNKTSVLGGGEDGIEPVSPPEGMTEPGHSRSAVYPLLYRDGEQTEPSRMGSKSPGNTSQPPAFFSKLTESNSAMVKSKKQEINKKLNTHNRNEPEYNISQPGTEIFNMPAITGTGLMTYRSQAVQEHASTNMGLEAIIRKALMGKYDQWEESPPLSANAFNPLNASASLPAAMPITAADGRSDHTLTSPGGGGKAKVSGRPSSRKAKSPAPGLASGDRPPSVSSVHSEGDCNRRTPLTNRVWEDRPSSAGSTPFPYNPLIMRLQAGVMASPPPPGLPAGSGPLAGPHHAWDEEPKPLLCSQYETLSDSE

Histone deacetylase 1 [3] = target: T2, Histone deacetylase 1 (Homo sapiens, UniProt Q13547); experiment: biochemical
T2 sequence (Q13547 whole entry): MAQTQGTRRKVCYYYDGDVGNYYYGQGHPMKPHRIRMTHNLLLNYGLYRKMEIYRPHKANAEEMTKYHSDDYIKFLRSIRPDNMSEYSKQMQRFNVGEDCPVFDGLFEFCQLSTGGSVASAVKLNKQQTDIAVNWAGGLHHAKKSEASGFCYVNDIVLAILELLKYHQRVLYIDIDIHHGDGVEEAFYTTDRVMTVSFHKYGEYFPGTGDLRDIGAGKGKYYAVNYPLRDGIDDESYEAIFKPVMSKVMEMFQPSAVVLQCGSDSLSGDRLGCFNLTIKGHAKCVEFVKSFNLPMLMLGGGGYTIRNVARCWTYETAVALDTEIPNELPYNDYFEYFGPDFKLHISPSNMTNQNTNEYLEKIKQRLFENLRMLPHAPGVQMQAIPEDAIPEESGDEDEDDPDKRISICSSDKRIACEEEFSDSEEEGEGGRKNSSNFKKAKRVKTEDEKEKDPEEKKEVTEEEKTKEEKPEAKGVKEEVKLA

Histone deacetylase 2 = Histone deacetylase 2 (Homo sapiens, UniProt Q92769); experiment: biochemical
Sequence of Histone deacetylase 2 (Q92769 whole entry): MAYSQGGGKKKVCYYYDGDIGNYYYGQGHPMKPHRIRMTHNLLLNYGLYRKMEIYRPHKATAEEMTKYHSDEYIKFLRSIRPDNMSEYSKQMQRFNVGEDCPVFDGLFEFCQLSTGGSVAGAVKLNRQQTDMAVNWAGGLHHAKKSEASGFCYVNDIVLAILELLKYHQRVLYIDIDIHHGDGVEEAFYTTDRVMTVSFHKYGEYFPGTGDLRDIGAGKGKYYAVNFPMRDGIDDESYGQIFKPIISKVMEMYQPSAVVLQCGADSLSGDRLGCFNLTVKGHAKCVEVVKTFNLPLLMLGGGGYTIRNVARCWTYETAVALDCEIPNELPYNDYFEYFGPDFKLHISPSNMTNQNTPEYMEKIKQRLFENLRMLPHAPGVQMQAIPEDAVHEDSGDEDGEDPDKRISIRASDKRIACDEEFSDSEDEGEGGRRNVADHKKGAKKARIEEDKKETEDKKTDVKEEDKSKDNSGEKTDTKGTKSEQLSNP

[4] = target: T3, Amine oxidase [flavin-containing] B (Homo sapiens, UniProt P27338); settings: read-out: INH
T3 sequence (P27338 whole entry): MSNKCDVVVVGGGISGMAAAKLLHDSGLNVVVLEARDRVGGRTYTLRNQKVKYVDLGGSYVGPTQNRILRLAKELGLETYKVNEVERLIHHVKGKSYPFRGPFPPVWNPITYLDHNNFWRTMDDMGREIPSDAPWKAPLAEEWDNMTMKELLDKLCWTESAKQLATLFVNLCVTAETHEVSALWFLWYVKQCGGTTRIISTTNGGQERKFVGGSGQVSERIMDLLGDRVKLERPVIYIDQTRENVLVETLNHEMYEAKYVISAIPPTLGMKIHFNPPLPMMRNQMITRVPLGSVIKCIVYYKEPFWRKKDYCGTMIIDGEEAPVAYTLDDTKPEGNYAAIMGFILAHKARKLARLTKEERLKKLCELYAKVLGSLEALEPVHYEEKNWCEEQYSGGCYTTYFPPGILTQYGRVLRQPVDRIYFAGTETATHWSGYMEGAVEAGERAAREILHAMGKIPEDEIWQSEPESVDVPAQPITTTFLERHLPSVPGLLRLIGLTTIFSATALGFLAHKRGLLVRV
Description: Inhibition of human recombinant MAO-B using para-tyramine as substrate at 1 uM by Amplex Red fluorimetric assay relative to control

Histone deacetylase 1 [5] = target: T2, Histone deacetylase 1; experiment: biochemical; remark: listed apart in the source
Cholinesterase = Cholinesterase (Equus caballus, UniProt P81908)
Sequence of Cholinesterase (P81908 whole entry): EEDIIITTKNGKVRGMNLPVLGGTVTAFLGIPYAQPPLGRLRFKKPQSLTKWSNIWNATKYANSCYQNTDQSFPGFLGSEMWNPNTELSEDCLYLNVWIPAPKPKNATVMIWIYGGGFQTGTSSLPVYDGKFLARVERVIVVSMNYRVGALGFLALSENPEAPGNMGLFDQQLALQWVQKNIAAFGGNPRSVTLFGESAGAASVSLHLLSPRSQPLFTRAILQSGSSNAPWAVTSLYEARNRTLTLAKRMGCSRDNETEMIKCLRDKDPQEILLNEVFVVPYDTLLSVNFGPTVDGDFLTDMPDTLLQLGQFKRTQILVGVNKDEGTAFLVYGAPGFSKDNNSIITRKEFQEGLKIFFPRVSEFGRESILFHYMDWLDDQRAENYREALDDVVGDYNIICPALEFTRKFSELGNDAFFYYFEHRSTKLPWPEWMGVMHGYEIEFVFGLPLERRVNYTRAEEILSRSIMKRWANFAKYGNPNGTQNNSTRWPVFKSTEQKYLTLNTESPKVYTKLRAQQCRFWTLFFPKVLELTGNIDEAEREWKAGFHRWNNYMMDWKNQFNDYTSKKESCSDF

Row | SMILES | IC50 [1] [µM] | IC50 (Histone deacetylase 1 [5]) [µM] | other results
1 | C#CCN1CCN(CCCOc2ccc3c(ccn3S(=O)(=O)c3ccc(C(=O)NO)cc3)c2)CC1 |  |  | IC50 (Histone deacetylase 2): 5.41 µM; inhibition at 1 µM [4]: 28%; IC50 [2]: 2.71 µM
2 | O=C(NO)c1ccc(S(=O)(=O)n2ccc3cc(OCCCN4CCCCC4)ccc32)cc1 |  | 0.735 | IC50 (Histone deacetylase 2): 1.92 µM; inhibition at 1 µM [4]: < 10%; IC50 [2]: 0.937 µM
3 | CCCNNC(=O)c1ccc(S(=O)(=O)n2ccc3cc(OCCCN4CCCCC4)ccc32)cc1 | > 10 |  | inhibition at 1 µM [4]: < 10%
4 | Nc1ccccc1NC(=O)c1ccc(S(=O)(=O)n2ccc3cc(OCc4ccccc4)ccc32)cc1 | > 10 |  | 
5 | C#CCN1CCN(CCCOc2ccc3c(ccn3S(=O)(=O)c3ccc(C(=O)NNCCC)cc3)c2)CC1 | > 10 |  | IC50 (Cholinesterase): 8.81 µM
6 | Nc1ccccc1NC(=O)c1ccc(S(=O)(=O)n2ccc3cc(OCCCN4CCCCC4)ccc32)cc1 | > 10 |  | 
7 | CCCNNC(=O)c1ccc(S(=O)(=O)n2ccc3cc(OC)ccc32)cc1 | > 10 |  | inhibition at 1 µM [4]: < 10%

More lines, main results first:

Row | IC50 [1] [µM] | IC50 (Histone deacetylase 1 [5]) [µM] | SMILES | other results
8 | > 10 |  | C#CCN(C)Cc1cc2cc(OCCCN3CCCCC3)ccc2n1C | IC50 [2]: > 10 µM; IC50 (Histone deacetylase 1 [3]): > 10 µM
9 | 0.168 |  | COc1ccc2c(ccn2S(=O)(=O)c2ccc(C(=O)NO)cc2)c1 | 
10 | > 3.33 |  | C#CCN1CCN(CCCOc2ccc3c(ccn3S(=O)(=O)c3ccc(C(=O)Nc4ccccc4N)cc3)c2)CC1 | 
11 |  | 3.99 | O=C(NO)c1ccc(S(=O)(=O)n2ccc3cc(OCc4ccccc4)ccc32)cc1 | 
12 | > 10 | > 10 | NNC(=O)c1ccc(S(=O)(=O)n2ccc3cc(OCCCN4CCCCC4)ccc32)cc1 | 
13 | > 10 |  | CCCN(CCC)NC(=O)c1ccc(S(=O)(=O)n2ccc3cc(OC)ccc32)cc1 | IC50 (Histone deacetylase 1 [3]): > 10 µM
14 | > 10 | > 10 | C#CCN1CCN(CCCOc2ccc3c(ccn3S(=O)(=O)c3ccc(C(=O)NN)cc3)c2)CC1 | 
15 | > 10 | > 10 | COc1ccc2c(ccn2S(=O)(=O)c2ccc(C(=O)NN)cc2)c1 | 
16 | > 10 | > 10 | NNC(=O)c1ccc(S(=O)(=O)n2ccc3cc(OCc4ccccc4)ccc32)cc1 | 

Reference: ChEMBL document CHEMBL5608242 (J Med Chem, 2024)
